The subject of one assay is RaVSMCs. The assay can be described thus: EdU proliferation assay in RaVSMCs. Format: cell-based, rat. The settings on record: 18 h then 6 h 10 μM EdU. Here is the method: (§1) Cell proliferation was measured using the Click-iT EdU 488 assay (Sigma-Aldrich). Briefly, the cells were treated with indicated concentrations of compounds for 24 h with the last 4 h being in the presence of 10 μM EdU. The cells were fixed in 4% formaldehyde and stained for EdU incorporation, following the kit’s standard protocol. The cells were counterstained with Hoechst 33342 nucleic acid for 20 min. Fluorescent images of at least three fields of view per well were counted using ImageJ software. Real-time analysis of cell migration was performed using an IncuCyte ZOOM live cell imaging system (Essen BioScience) according to the manufacturer’s instructions. Briefly, the cells were seeded (1.2 × 10^4 cells/well for HeLa cells, 1.5 × 10^4 cells/well for RaVSMCs, and 1 × 10^4 cells/well) into ImageLock 96-well plates. After 36 h, the cells were pretreated overnight with indicated concentrations of compounds. The wells were scratched using a WoundMaker tool, and the media were replaced containing test compounds. Phase contrast images of cell migration into the wounded area were acquired hourly for 24 h. Relative wound confluence was calculated using the Cell Migration Image analysis module of the IncuCyte ZOOM software.

The next assay concerns MCF7 cells. In words: EdU proliferation assay in MCF7 cells. Format: cell-based, human. The settings on record: MCF7, YAP-TEAD-independent growth, 18 hours then 6 hours EdU. Here is the method:
as §1, with “ZOOM software. […]” for “ZOOM software.”
MCF7 cells were incubated with the indicated concentrations of CPD3.1 (n=3). […] Edu incorporation in to newly synthesised DNA was detected using the Edu-Click detection kit. […]

The next assay has as its target T1, TEAD2 (Homo sapiens, UniProt Q15562).
T1 construct: #18881 (FLAG-YAP); host or cells: HeLa
In words: GAL4-TEAD2 fusion / 5xGAL4-secNLUC reporter in HeLa cells. Format: cell-based. The conditions noted are these: 100 μM, 6 h. The source says:
(§2) TEAD proteins (TEAD1–4) display a high degree of sequence conservation in residues that create the hydrophobic pocket that is essential for YAP binding.[51] YAP proteins also display a high degree of conservation in residues that interact with this pocket.[51] We therefore tested whether CPD3.1 was able to inhibit YAP-induced activity of TEAD1, TEAD2, TEAD3, and TEAD4. To quantify the effect of CPD3.1 on the activity of each individual TEAD paralog, while excluding interference from endogenously expressed TEAD1–4 proteins, we expressed each TEAD paralog (TEAD1–4) fused to the yeast GAL4 DNA-binding domain. Cells were transfected with the GAL4–TEAD expression vector together with a secreted nanoluciferase reporter gene vector under control of a promoter containing five GAL4 DNA-binding elements. This system allows us to study the effect of CPD3.1 on the activity of each individual TEAD protein in isolation, without interference from endogenously expressed transcription factors. In addition, the cells were co-transfected with a YAP expression vector to activate the GAL4–TEAD fusion-dependent transcription (see Supplement Figure 9). Basal activities of TEAD1, TEAD2, TEAD3, and TEAD4 were inhibited by CPD3.1 (Figure 7A–D). […]
(§3) Figure 7 Compound 3.1 inhibits TEAD1, TEAD2, TEAD3, and TEAD4 activities. […] Secreted nano-luciferase activity was quantified in the conditioned media. […]

Another assay has as its target T2, TEAD4 (Homo sapiens, UniProt Q15561).
T2 construct: #18881 (FLAG-YAP); host or cells: HeLa
In words: GAL4-TEAD4 fusion / 5xGAL4-secNLUC reporter in HeLa cells. The settings on record: 100 μM, 6 h. Format: cell-based.
From the text: as §2, §3

T1 sequence (Q15562 whole entry): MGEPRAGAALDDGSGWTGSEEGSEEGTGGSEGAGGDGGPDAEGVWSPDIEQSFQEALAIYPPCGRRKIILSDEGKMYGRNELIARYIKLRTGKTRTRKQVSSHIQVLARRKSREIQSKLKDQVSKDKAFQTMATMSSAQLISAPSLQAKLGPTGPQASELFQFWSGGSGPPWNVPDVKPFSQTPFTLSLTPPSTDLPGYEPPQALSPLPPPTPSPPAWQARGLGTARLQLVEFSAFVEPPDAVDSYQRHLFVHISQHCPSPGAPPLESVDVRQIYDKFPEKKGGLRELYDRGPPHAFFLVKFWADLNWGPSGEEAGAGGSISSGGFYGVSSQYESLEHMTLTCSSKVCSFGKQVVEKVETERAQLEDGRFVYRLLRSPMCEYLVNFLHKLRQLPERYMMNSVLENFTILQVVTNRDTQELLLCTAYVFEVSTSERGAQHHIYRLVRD
T2 sequence (Q15561 whole entry): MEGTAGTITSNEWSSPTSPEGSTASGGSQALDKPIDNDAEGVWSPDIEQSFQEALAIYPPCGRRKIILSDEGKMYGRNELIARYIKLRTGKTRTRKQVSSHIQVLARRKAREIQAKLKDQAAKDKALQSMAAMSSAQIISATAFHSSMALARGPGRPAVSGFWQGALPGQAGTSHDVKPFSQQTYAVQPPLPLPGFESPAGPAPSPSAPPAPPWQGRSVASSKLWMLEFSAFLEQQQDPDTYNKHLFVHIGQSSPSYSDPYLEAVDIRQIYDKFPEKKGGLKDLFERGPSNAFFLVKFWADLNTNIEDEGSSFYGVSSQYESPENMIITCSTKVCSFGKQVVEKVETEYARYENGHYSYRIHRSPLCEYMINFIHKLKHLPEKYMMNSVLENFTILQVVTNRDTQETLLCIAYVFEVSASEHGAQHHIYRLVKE

For `Cc1ccc2c(c1)c1c3n2CCN(CC(O)CN2CCN(C(=O)c4ccco4)CC2)C3CCC1` (stereo not drawn) [CPD3], in the assay with RaVSMCs, the “cell proliferation (EdU incorporation)” value was “dose-dependently inhibited cell proliferation”.
In the case of `Cc1ccc2c(c1)c1c3n2CCNC3CCC1` (stereo not drawn) [CPD3.1], the “proliferation of MCF7 cells (EdU)” value in the assay with MCF7 cells was “did not inhibit the proliferation of MCF7 cells”. Besides, the “basal activity of GAL4-TEAD2” value on TEAD2 was “inhibited”. Also, the “YAP-stimulated activity of GAL4-TEAD2” value on TEAD2 (YAP overexpression) is given as “significantly inhibited”. Further, the “basal activity of GAL4-TEAD4” value at TEAD4 was “inhibited”. Further, on TEAD4 (YAP overexpression), the “YAP-stimulated activity of GAL4-TEAD4” value is given as “significantly inhibited”.

The record behind these values is PMC6701825, “Antiproliferative and Antimigratory Effects of a Novel YAP–TEAD Interaction Inhibitor Identified Using in Silico Molecular Docking” (Journal of Medicinal Chemistry, 2019).
